Laboratory results published in patent US20230085307A1, “PYRIDAZINONE COMPOUND AND HERBICIDE” (NISSAN CHEMICAL CORPORATION, priority 2019, published 2023).

Columns and labels:
[1] = tested on: velvetleaf; assay: Test Example 5: herbicidal effect by foliage application, plastic box (Table 20, symbol M); type: in vivo, velvetleaf (Abutilon theophrasti); settings: foliage application, 320 g/ha
In short: (§1)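 Foliar spray test: emulsion formulation diluted in water to a set application rate, sprayed onto 14-day-old plants raised in diluvial soil at 25° C to 30° C under glass. Both herbicidal effect and crop effect rated visually three weeks later.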

[2] = tested on: Italian ryegrass; assay: Test Example 5: herbicidal effect by foliage application, plastic box (Table 20, symbol K); type: in vivo, Italian ryegrass (Lolium multiflorum); settings: foliage application, 320 g/ha
In short: as §1

[3] = tested on: persian speedwell; assay: Test Example 5: herbicidal effect by foliage application, plastic box (Table 20, symbol R); type: in vivo, Persian speedwell (Veronica persica); settings: foliage application, 320 g/ha
In short: as §1

[4] = tested on: green foxtail; assay: Test Example 5: herbicidal effect by foliage application, plastic box (Table 20, symbol G); type: in vivo, green foxtail (Setaria viridis); settings: foliage application, 320 g/ha
In short: as §1

[5] = tested on: windgrass; assay: Test Example 5: herbicidal effect by foliage application, plastic box (Table 20, symbol L); type: in vivo, windgrass (Apera spica-venti); settings: foliage application, 320 g/ha
In short: as §1

[6] = tested on: Italian ryegrass; assay: Test Example 4: herbicidal effect by soil treatment (Table 19, symbol K); type: in vivo, Italian ryegrass (Lolium multiflorum)
In short: (§2)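 Herbicidal effect was rated 3 weeks after treatment, using the scoring criteria of an earlier test. The compound, formulated as an emulsion and diluted in water to a set herbicide amount, had been sprayed uniformly on soil over freshly sown seeds. Growth took place in a greenhouse at 25° C. to 30° C.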

[7] = tested on: chickweed; assay: Test Example 4: herbicidal effect by soil treatment (Table 19, symbol P); type: in vivo, common chickweed (Stellaria media)
In short: as §2

[8] = tested on: lambsquarters; assay: Test Example 5: herbicidal effect by foliage application, plastic box (Table 20, symbol O); type: in vivo, lambsquarters (Chenopodium album); settings: foliage application, 320 g/ha
In short: as §1

[9] = tested on: persian speedwell; assay: Test Example 4: herbicidal effect by soil treatment (Table 19, symbol R); type: in vivo, Persian speedwell (Veronica persica)
In short: as §2

[10] = tested on: wild oat; assay: Test Example 4: herbicidal effect by soil treatment (Table 19, symbol I); type: in vivo, wild oat (Avena fatua)
In short: as §2

[11] = tested on: redroot pigweed; assay: Test Example 4: herbicidal effect by soil treatment (Table 19, symbol N); type: in vivo, redroot pigweed (Amaranthus retroflexus)
In short: as §2

[12] = tested on: barnyard grass; assay: Test Example 5: herbicidal effect by foliage application, plastic box (Table 20, symbol H); type: in vivo, barnyard grass (Echinochloa crus-galli); settings: foliage application, 320 g/ha
In short: as §1

[13] = tested on: barnyard grass; assay: Test Example 3: herbicidal effect by foliage application, Wagner pot (Table 18, symbol H); type: in vivo, barnyard grass (Echinochloa crus-galli)
In short: (§3)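 Plants were sown in alluvial soil held under 0.1–0.5 cm standing water and grown 14 days in a greenhouse at 25–30 °C. An emulsifiable formulation, water-diluted to the set dose, was then sprayed onto the foliage, and effects were scored three weeks later using previously defined criteria.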

[14] = tested on: wild oat; assay: Test Example 5: herbicidal effect by foliage application, plastic box (Table 20, symbol I); type: in vivo, wild oat (Avena fatua); settings: foliage application, 320 g/ha
In short: as §1

[15] = tested on: windgrass; assay: Test Example 4: herbicidal effect by soil treatment (Table 19, symbol L); type: in vivo, windgrass (Apera spica-venti)
In short: as §2

[16] = tested on: lambsquarters; assay: Test Example 4: herbicidal effect by soil treatment (Table 19, symbol O); type: in vivo, lambsquarters (Chenopodium album)
In short: as §2

[17] = tested on: blackgrass; assay: Test Example 4: herbicidal effect by soil treatment (Table 19, symbol J); type: in vivo, blackgrass (Alopecurus myosuroides)
In short: as §2

[18] = tested on: velvetleaf; assay: Test Example 4: herbicidal effect by soil treatment (Table 19, symbol M); type: in vivo, velvetleaf (Abutilon theophrasti)
In short: as §2

[19] = tested on: southern crabgrass; assay: Test Example 4: herbicidal effect by soil treatment (Table 19, symbol F); type: in vivo, southern crabgrass (Digitaria ciliaris)
In short: as §2

[20] = tested on: blackgrass; assay: Test Example 5: herbicidal effect by foliage application, plastic box (Table 20, symbol J); type: in vivo, blackgrass (Alopecurus myosuroides); settings: foliage application, 320 g/ha
In short: as §1

[21] = tested on: southern crabgrass; assay: Test Example 5: herbicidal effect by foliage application, plastic box (Table 20, symbol F); type: in vivo, southern crabgrass (Digitaria ciliaris); settings: foliage application, 320 g/ha
In short: as §1

[22] = tested on: green foxtail; assay: Test Example 4: herbicidal effect by soil treatment (Table 19, symbol G); type: in vivo, green foxtail (Setaria viridis)
In short: as §2

[23] = tested on: false cleavers; assay: Test Example 4: herbicidal effect by soil treatment (Table 19, symbol Q); type: in vivo, false cleavers (Galium spurium)
In short: as §2

[24] = tested on: Chinese sprangletop; assay: Test Example 3: herbicidal effect by foliage application, Wagner pot (Table 18, symbol D); type: in vivo, chinese sprangletop (Leptochloa chinensis)
In short: as §3

[25] = tested on: barnyard grass; assay: Test Example 4: herbicidal effect by soil treatment (Table 19, symbol H); type: in vivo, barnyard grass (Echinochloa crus-galli)
In short: as §2

[26] = tested on: rice flat sedge; assay: Test Example 3: herbicidal effect by foliage application, Wagner pot (Table 18, symbol E); type: in vivo, rice flat sedge (Cyperus iria)
In short: as §3

[27] = amount of applied herbicide 320 g/ha

Compound: Cc1nn(C)c(=O)c(-c2c(-c3ccc(SC(C)C)cc3)oc3ccc(F)cc23)c1O [9-041]
- herbicidal effect on velvetleaf (M) ([1]; three weeks after application): 3 (Herbicidal rate of 40% or more and less than 70%)
- herbicidal effect on Italian ryegrass (K) ([2]; three weeks after application): 5 (Herbicidal rate of 90% or more (almost completely withered))
- herbicidal effect on persian speedwell (R) ([3]; three weeks after application): 5 (Herbicidal rate of 90% or more (almost completely withered))
- herbicidal effect on green foxtail (G) ([4]; three weeks after application): 4 (Herbicidal rate of 70% or more and less than 90%)
- herbicidal effect on windgrass (L) ([5]; three weeks after application): 4 (Herbicidal rate of 70% or more and less than 90%)
- K: Italian ryegrass, herbicidal effect grade [6, 27]: 5 (Herbicidal rate of 90% or more (almost completely withered))
- P: chickweed, herbicidal effect grade [7, 27]: 1 (Herbicidal rate of 5% or more and less than 20%)
- herbicidal effect on lambsquarters (O) ([8]; three weeks after application): 4 (Herbicidal rate of 70% or more and less than 90%)
- R: persian speedwell, herbicidal effect grade [9, 27]: 4 (Herbicidal rate of 70% or more and less than 90%)
- I: wild oat, herbicidal effect grade [10, 27]: 0 (Herbicidal rate of 5% or less (almost no effect))
- N: redroot pigweed, herbicidal effect grade [11, 27]: 5 (Herbicidal rate of 90% or more (almost completely withered))
- herbicidal effect on barnyard grass (H) ([12]; three weeks after application): 3 (Herbicidal rate of 40% or more and less than 70%)
- Herbicidal effect on H (barnyard grass), foliage application [13, 27]: 5 (Herbicidal rate of 90% or more (almost completely withered))
- herbicidal effect on wild oat (I) ([14]; three weeks after application): 3 (Herbicidal rate of 40% or more and less than 70%)
- L: windgrass, herbicidal effect grade [15, 27]: 0 (Herbicidal rate of 5% or less (almost no effect))
- O: lambsquarters, herbicidal effect grade [16, 27]: 4 (Herbicidal rate of 70% or more and less than 90%)
- J: blackgrass, herbicidal effect grade [17, 27]: 0 (Herbicidal rate of 5% or less (almost no effect))
- M: velvetleaf, herbicidal effect grade [18, 27]: 1 (Herbicidal rate of 5% or more and less than 20%)
- F: southern crabgrass, herbicidal effect grade [19, 27]: 3 (Herbicidal rate of 40% or more and less than 70%)
- herbicidal effect on blackgrass (J) ([20]; three weeks after application): 3 (Herbicidal rate of 40% or more and less than 70%)
- herbicidal effect on southern crabgrass (F) ([21]; three weeks after application): 0 (Herbicidal rate of 5% or less (almost no effect))
- G: green foxtail, herbicidal effect grade [22, 27]: 4 (Herbicidal rate of 70% or more and less than 90%)
- Q: false cleavers, herbicidal effect grade [23, 27]: 0 (Herbicidal rate of 5% or less (almost no effect))
- Herbicidal effect on D (Chinese sprangletop), foliage application [24, 27]: 2 (Herbicidal rate of 20% or more and less than 40%)
- H: barnyard grass, herbicidal effect grade [25, 27]: 1 (Herbicidal rate of 5% or more and less than 20%)
- Herbicidal effect on E (rice flat sedge), foliage application [26, 27]: 5 (Herbicidal rate of 90% or more (almost completely withered))

Compound: COCCOCOc1c(C)nn(C)c(=O)c1-c1c(-c2ccc(OC(C)C#N)cc2)sc2ccccc12 (racemic) [1-237]
- effect on velvetleaf (M) ([1]; 3 weeks after application): 4 (Herbicidal rate of 70% or more and less than 90%)
- effect on Italian ryegrass (K) ([2]; 3 weeks after application): 4 (Herbicidal rate of 70% or more and less than 90%)
- effect on persian speedwell (R) ([3]; 3 weeks after application): 5 (Herbicidal rate of 90% or more (almost completely withered))
- effect on green foxtail (G) ([4]; 3 weeks after application): 5 (Herbicidal rate of 90% or more (almost completely withered))
- effect on windgrass (L) ([5]; 3 weeks after application): 1 (Herbicidal rate of 5% or more and less than 20%)
- K: Italian ryegrass, herbicidal effect rating ([6]; AAH 320 g/ha): 3 (Herbicidal rate of 40% or more and less than 70%)
- P: chickweed, herbicidal effect rating ([7]; AAH 320 g/ha): 3 (Herbicidal rate of 40% or more and less than 70%)
- effect on lambsquarters (O) ([8]; 3 weeks after application): 5 (Herbicidal rate of 90% or more (almost completely withered))
- R: persian speedwell, herbicidal effect rating ([9]; AAH 320 g/ha): 5 (Herbicidal rate of 90% or more (almost completely withered))
- I: wild oat, herbicidal effect rating ([10]; AAH 320 g/ha): 0 (Herbicidal rate of 5% or less (almost no effect))
- N: redroot pigweed, herbicidal effect rating ([11]; AAH 320 g/ha): 5 (Herbicidal rate of 90% or more (almost completely withered))
- effect on barnyard grass (H) ([12]; 3 weeks after application): 4 (Herbicidal rate of 70% or more and less than 90%)
- herbicidal effect on H (barnyard grass), rating 0-5 ([13]; 320 g/ha): 5 (Herbicidal rate of 90% or more (almost completely withered))
- effect on wild oat (I) ([14]; 3 weeks after application): 3 (Herbicidal rate of 40% or more and less than 70%)
- L: windgrass, herbicidal effect rating ([15]; AAH 320 g/ha): 0 (Herbicidal rate of 5% or less (almost no effect))
- O: lambsquarters, herbicidal effect rating ([16]; AAH 320 g/ha): 3 (Herbicidal rate of 40% or more and less than 70%)
- J: blackgrass, herbicidal effect rating ([17]; AAH 320 g/ha): 0 (Herbicidal rate of 5% or less (almost no effect))
- M: velvetleaf, herbicidal effect rating ([18]; AAH 320 g/ha): 1 (Herbicidal rate of 5% or more and less than 20%)
- F: southern crabgrass, herbicidal effect rating ([19]; AAH 320 g/ha): 1 (Herbicidal rate of 5% or more and less than 20%)
- effect on blackgrass (J) ([20]; 3 weeks after application): 4 (Herbicidal rate of 70% or more and less than 90%)
- effect on southern crabgrass (F) ([21]; 3 weeks after application): 3 (Herbicidal rate of 40% or more and less than 70%)
- G: green foxtail, herbicidal effect rating ([22]; AAH 320 g/ha): 4 (Herbicidal rate of 70% or more and less than 90%)
- Q: false cleavers, herbicidal effect rating ([23]; AAH 320 g/ha): 0 (Herbicidal rate of 5% or less (almost no effect))
- herbicidal effect on D (Chinese sprangletop), rating 0-5 ([24]; 320 g/ha): 4 (Herbicidal rate of 70% or more and less than 90%)
- H: barnyard grass, herbicidal effect rating ([25]; AAH 320 g/ha): 0 (Herbicidal rate of 5% or less (almost no effect))
- herbicidal effect on E (rice flat sedge), rating 0-5 ([26]; 320 g/ha): 4 (Herbicidal rate of 70% or more and less than 90%)
